Holding throughout (format): cell-based
Assay [1] concerns IL-2 promoter. The experiment in a line: IL-2 promoter luciferase reporter gene assay in Jurkat T cells. Conditions: PMA and ionomycin. For orientation: A reporter such as luciferase makes a cellular process visible.
For assay [2], the system named is IL-2 promoter. The experiment in a line: IL-2 promoter activation in T cells expressing calcineurin mutant. Conditions: expressed in T cells.
Assay [3] has as its target T1, interaction between Cabin 1-14 and full length calcineurin β2 (H160N) (Homo sapiens, UniProt P16298, H160N).
T1 construct: expressed in transfected cells; host or cells: Jurkat T cells
As to the kind of experiment: mammalian two-hybrid assay in Jurkat T cells (luciferase reporter). Conditions: Jurkat T cells, PMA/ionomycin stimulated, drug added 30 min prior to stimulation. The text has this:
A mammalian two-hybrid system was established in Jurkat T cells by fusing calcineurin with the Gal4 DNA binding domain and Cabin 1-14 with the VP16 activation domain (Hsu et al., Proc. Natl. Acid Sci. USA 91:3181-3185 (1994)). The fusion plasmids for mammalian two-hybrid assays were constructed as follows: The cDNAs of calcineurin Aβ2 wild type and H160N mutant were fused to the GAL4 DB in the pM vector (obtained from Clontech, Palo Alto, Calif.) (pMCNβ2 and PMCNβ2 (H160N), and the cDNA of Cabin 1-14 was fused to the VP16 AD in the pVP16 vector (pVPCabin 1-14). Jurkat T cells were transfected with 5 μg of pMCβ2 or pMCβ2 (H160N), 5 μg of pVPCabin 1-14, 1 μg of pCMV-βGal, and 2 μg of pg5Luc, a luciferase reporter plasmid containing GAL4 promoter, by electroporation (960 μF, 250V). After 48 hr, cells were stimulated with 40 nM PMA and 2.5 μM ionomycin, either alone or in combination, for 6 hr before luciferase activity was measured for each sample. The luciferase reporter gene assay reagents were obtained from Promega, Madison, Wis., and the assay was performed per manufacturer's instructions. […] Where appropriate, the transfection efficiency was measured by co-transfecting 2 μg of CMV-driven β-galactosidase expression vector and measuring enzymatic β-galactosidase activity (Ausubel et al., Current Protocols in Molecular Biology (John Wiley & Sons, Inc., New York, 1994)).

Entries after “also recorded” stand apart in the source; their conditions may differ.

Consider “Cabin 1: isolated calcineurin binding polypeptide, amino acid sequence SEQ ID NO:1, 2220 amino acids”, for which the “effect on IL-2 reporter gene activation” value is “lower potency” in the assay with IL-2 promoter [1] and “inhibit” with IL-2 promoter [1] (listed as Cabin1).
Consider “H 160N: catalytically inactive mutant of the β2 isoform of calcineurin, used as bait”, for which the “blocking of PMA and ionomycin-stimulated IL-2 promoter activation” value with IL-2 promoter [2] is given as “over 60%”.
In the case of bisindolylmaleimide, in assay [3], the “sensitivity of interaction between full length calcineurin β2 (H160N) and Cabin 1-14 to drug” value was “inhibited the interaction between calcineurin and Cabin 1-14 in a dose-dependent manner; also recorded: sensitive”.
Turning to cyclosporin A [CsA], in assay [3], the “sensitivity of interaction between full length calcineurin β2 (H160N) and Cabin 1-14 to drug” value is “sensitive”.

The values above are taken from patent US6686450B1, “Immunosuppressive agents that inhibit calcineurin function and uses of these agents” (Massachusetts Institute of Technology, priority 1998, dated 2004).
